Patent US6716635B2, “Method for identifying regulators of protein-advanced glycation end product (protein-AGE) formation” (University of Kentucky Research Foundation, priority 2000, dated 2004)

What was measured:
[1] = test system: He-Cat (human epidermal keratinocytes); experiment: protection against α-dicarbonyl toxicity in keratinocytes, cell count; format: cell-based; conditions: 72 hours
Description: (§1) Continuously cultured cell lines “He-Cat” (human epidermal keratinocytes), and “CF-3” (human dermal fibroblasts), were cultured under standard conditions, divided biweekly into DMEM containing 10% fetal bovine serum, and were kept in a humidified atmosphere containing 5% CO2 at 37° C. In order to divide the cells, 5% trypsin was used on the keratinocytes, and 1% trypsin was used on the fibroblasts.
(§2) Keratinocytes were seeded at 2×10^4 cells/well, and fibroblasts at 4×10^4 cells/well, using 6 well dishes. The cells were allowed to attach to the plate overnight. Either D-penicillamine or aminoguanidine (1 mM each) was added to the plates 15 minutes prior to addition of glyoxal or methylglyoxal. The α-dicarbonyl was left for 72 hours. Varying concentrations of the α-dicarbonyl were used. Cells were counted with a Coulter counter after 72 hours of stress. Cultures were also run where the glyoxal or methylglyoxal was used without the scavenger. L-alanine was used as a negative control as it was not expected to have protective effect.

[2] = test system: CF-3 (human dermal fibroblasts); experiment: protection against α-dicarbonyl toxicity in fibroblasts, cell count; format: cell-based; conditions: 72 hours
Description: as §1, §2

[3] = compound 1 mM added 15 minutes prior to methylglyoxal

## CC(=O)C=O [methylglyoxal]
[1]; no scavenger
  concentration completely inhibitory to growth: 600 µM
[2]; no scavenger
  concentration completely inhibitory to growth: 600 µM

## C[C@H](N)C(=O)O [L-alanine]
[1]; [3]
  protection against methylglyoxal induced growth inhibition: no protective effect
[2]; [3]
  protection against methylglyoxal induced growth inhibition: no protective effect
